Experimental data taken from patent US9822114B2, “Tricyclic oxazolidinone antibiotic compounds” (Idorsia Pharmaceuticals Ltd, priority 2008, dated 2017).
Converted amounts (≈) assume the structure as drawn.

Tested on: M. catarrhalis A894
Assay: Minimal inhibitory concentration (MIC), microdilution method in cation-adjusted Mueller-Hinton Broth (CLSI M7-A7)
Type: cell-based
Conditions: Moraxella catarrhalis, strain A894
Method: Minimal inhibitory concentrations (MICs; mg/1) were determined in cation-adjusted Mueller-Hinton Broth by a microdilution method following the description given in “Methods for Dilution Antimicrobial Susceptibility Tests for Bacteria that Grow Aerobically”, Approved standard, 7th ed., Clinical and Laboratory Standards Institute (CLSI) Document M7-A7, Wayne, Pa., USA, 2006.

Structure (SMILES)	MIC
O=C1CSc2ccc(N3C[C@H](CCNCC4Cn5c(=O)ccc6ncc(F)c4c65)OC3=O)cc2N1 (mixture of isomers) [Example 99, (RS)-3-fluoro-4-({2-[(S)-2-oxo-3-(3-oxo-3,4-dihydro-2H-benzo[1,4]thiazin-6-yl)-oxazolidin-5-yl]-ethylamino}-methyl)-4,5-dihydro-pyrrolo[3,2,1-de][1,5]naphthyridin-7-one]	≤ 0.031 µg/mL
N#Cc1ccc2ccc(=O)n3c2c1C(NCCC[C@@H]1CN(c2ccc4c(n2)NC(=O)CS4)C(=O)O1)C3 (mixture of isomers) [Example 118, (RS)-4-oxo-1-{3-[(R)-2-oxo-3-(3-oxo-3,4-dihydro-2H-pyrido[3,2-b][1,4]thiazin-6-yl)-oxazolidin-5-yl]-propylamino}-1,2-dihydro-4H-pyrrolo[3,2,1-ij]quinoline-9-carbonitrile]	≤ 0.031 µg/mL
O=C1COc2ccc(N3C[C@H](CCCN[C@@H]4Cn5c(=O)ccc6ncc(F)c4c65)OC3=O)cc2N1 [Example 149, (S)-3-fluoro-4-{3-[(S)-2-oxo-3-(3-oxo-3,4-dihydro-2H-benzo[1,4]oxazin-6-yl)-oxazolidin-5-yl]-propylamino}-4,5-dihydro-pyrrolo[3,2,1-de][1,5]naphthyridin-7-one]	≤ 0.031 µg/mL
O=C1COc2ccc(N3C[C@H](CCN[C@@H]4Cn5c(=O)ccc6cccc4c65)OC3=O)cc2N1 [Example 89, (S)-1-{2-[(S)-2-oxo-3-(3-oxo-3,4-dihydro-2H-benzo[1,4]oxazin-6-yl)-oxazolidin-5-yl]-ethylamino}-1,2-dihydro-pyrrolo[3,2,1-ij]quinolin-4-one]	0.063 µg/mL (≈ 0.141 µM)
O=C1CSc2ccc(N3C[C@H](CCCN[C@H]4Cn5c(=O)ccc6ncc(F)c4c65)OC3=O)cc2N1 [Example 139, (R)-3-fluoro-4-{3-[(S)-2-oxo-3-(3-oxo-3,4-dihydro-2H-benzo[1,4]thiazin-6-yl)-oxazolidin-5-yl]-propylamino}-4,5-dihydro-pyrrolo[3,2,1-de][1,5]naphthyridin-7-one]	≤ 0.031 µg/mL
O=C1CSc2ccc(N3C[C@@H](CCNCC4Cn5c(=O)ccc6nccc4c65)OC3=O)cc2N1 (mixture of isomers) [Example 34, (RS)-4-({2-[(R)-2-oxo-3-(3-oxo-3,4-dihydro-2H-benzo[1,4]thiazin-6-yl)-oxazolidin-5-yl]-ethylamino}-methyl)-4,5-dihydro-pyrrolo[3,2,1-de][1,5]naphthyridin-7-one]	≤ 0.031 µg/mL
C[C@H]1[C@H](NCCC[C@@H]2CN(c3ccc4c(c3)NC(=O)CS4)C(=O)O2)c2c(F)ccc3ccc(=O)n1c23 (relative stereo) [Example 183, (1R*,2S*)-9-fluoro-2-methyl-1-{3-[(R)-2-oxo-3-(3-oxo-3,4-dihydro-2H-benzo[1,4]thiazin-6-yl)-oxazolidin-5-yl]-propylamino}-1,2-dihydro-pyrrolo[3,2,1-ij]quinolin-4-one]	≤ 0.031 µg/mL
O=C1CSc2ccc(N3C[C@@H](CCCN[C@H]4Cn5c(=O)cnc6ccc(F)c4c65)OC3=O)nc2N1 [Example 132, (R)-7-fluoro-6-{3-[(R)-2-oxo-3-(3-oxo-3,4-dihydro-2H-pyrido[3,2-b][1,4]thiazin-6-yl)-oxazolidin-5-yl]-propylamino}-5,6-dihydro-pyrrolo[1,2,3-de]quinoxalin-3-one]	≤ 0.031 µg/mL
O=C1CSc2ccc(N3C[C@@H](CCCN[C@@H]4Cn5c(=O)ccc6ccc(F)c4c65)OC3=O)cc2N1 [Example 128, (S)-9-fluoro-1-{3-[(R)-2-oxo-3-(3-oxo-3,4-dihydro-2H-benzo[1,4]thiazin-6-yl)-oxazolidin-5-yl]-propylamino}-1,2-dihydro-pyrrolo[3,2,1-ij]quinolin-4-one]	≤ 0.031 µg/mL
O=C1CSc2ccc(N3C[C@@H](CCCN[C@H]4Cn5c(=O)ccc6ncc(F)c4c65)OC3=O)nc2N1 [Example 142, (R)-3-fluoro-4-{3-[(R)-2-oxo-3-(3-oxo-3,4-dihydro-2H-pyrido[3,2-b][1,4]thiazin-6-yl)-oxazolidin-5-yl]-propylamino}-4,5-dihydro-pyrrolo[3,2,1-de][1,5]naphthyridin-7-one]	≤ 0.031 µg/mL
